Consider 17 molecules from ChEMBL document CHEMBL1201862, “PubChem BioAssay data set” (2004).

Calls of active or inactive are those of the source.

What is called EC50 is the midpoint of the concentration-response curve. For orientation: IC50 means the point on the concentration scale where inhibition reaches its midpoint. A word on the AC50: it is the midpoint of the concentration-response curve, whichever way the signal moves.

The target of test [1] is T1, Heat shock factor protein 1 (Mus musculus, UniProt P38532).
T1 sequence (P38532 whole entry): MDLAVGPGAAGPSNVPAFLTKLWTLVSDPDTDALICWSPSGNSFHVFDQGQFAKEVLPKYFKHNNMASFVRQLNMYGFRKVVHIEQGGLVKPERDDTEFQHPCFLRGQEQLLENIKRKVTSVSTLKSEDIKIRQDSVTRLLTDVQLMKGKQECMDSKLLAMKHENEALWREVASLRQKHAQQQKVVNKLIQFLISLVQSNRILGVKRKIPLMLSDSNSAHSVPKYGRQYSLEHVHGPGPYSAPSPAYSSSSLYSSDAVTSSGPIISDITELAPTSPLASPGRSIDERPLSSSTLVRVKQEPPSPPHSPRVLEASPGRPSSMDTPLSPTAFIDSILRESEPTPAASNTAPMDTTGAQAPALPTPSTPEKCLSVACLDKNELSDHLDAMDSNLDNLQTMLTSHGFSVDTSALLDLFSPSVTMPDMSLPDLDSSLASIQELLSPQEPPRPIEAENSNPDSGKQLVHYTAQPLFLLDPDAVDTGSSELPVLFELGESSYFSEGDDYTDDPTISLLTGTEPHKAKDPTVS
The test is described as follows: HSF1 potentiators in luciferase reporter cells, confirmation, cell-based, NIH3T3, luminescence, dose retest (AID 435004).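 Also: stress induced by proteasome inhibitor MG132 added 30 min after compound; luciferase reporter driven by HSF1 response element in NIH3T3 cells; actives raise luminescence as potentiators of the MG132 stress response.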 The format is functional. (In general: Reporter assays use an easily measured gene product as a stand-in for the process of interest.)

Test [2] deals with T2, Oxysterols receptor LXR-beta (Homo sapiens, UniProt P55055).
T2 sequence (P55055 whole entry): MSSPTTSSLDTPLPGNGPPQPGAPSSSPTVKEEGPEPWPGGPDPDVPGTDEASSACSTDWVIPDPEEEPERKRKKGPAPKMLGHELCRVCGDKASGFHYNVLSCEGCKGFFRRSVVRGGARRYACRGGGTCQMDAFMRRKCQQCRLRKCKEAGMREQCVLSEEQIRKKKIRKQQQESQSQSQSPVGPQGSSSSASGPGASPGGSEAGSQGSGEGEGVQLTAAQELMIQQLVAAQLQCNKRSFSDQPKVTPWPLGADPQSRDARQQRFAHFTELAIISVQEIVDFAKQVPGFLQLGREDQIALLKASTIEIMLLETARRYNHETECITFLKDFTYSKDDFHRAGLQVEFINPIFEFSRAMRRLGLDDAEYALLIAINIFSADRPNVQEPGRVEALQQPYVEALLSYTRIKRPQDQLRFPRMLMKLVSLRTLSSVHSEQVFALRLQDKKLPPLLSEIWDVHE
The format is functional, cell-based.

In test [3] the target is T3, Sentrin-specific protease 7 (Homo sapiens, UniProt Q9BQF6).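 Also: Luminescence-based dose-response confirmation of ultra-high-throughput screening hits, measuring inhibition of SENP7.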
T3 sequence (Q9BQF6 whole entry): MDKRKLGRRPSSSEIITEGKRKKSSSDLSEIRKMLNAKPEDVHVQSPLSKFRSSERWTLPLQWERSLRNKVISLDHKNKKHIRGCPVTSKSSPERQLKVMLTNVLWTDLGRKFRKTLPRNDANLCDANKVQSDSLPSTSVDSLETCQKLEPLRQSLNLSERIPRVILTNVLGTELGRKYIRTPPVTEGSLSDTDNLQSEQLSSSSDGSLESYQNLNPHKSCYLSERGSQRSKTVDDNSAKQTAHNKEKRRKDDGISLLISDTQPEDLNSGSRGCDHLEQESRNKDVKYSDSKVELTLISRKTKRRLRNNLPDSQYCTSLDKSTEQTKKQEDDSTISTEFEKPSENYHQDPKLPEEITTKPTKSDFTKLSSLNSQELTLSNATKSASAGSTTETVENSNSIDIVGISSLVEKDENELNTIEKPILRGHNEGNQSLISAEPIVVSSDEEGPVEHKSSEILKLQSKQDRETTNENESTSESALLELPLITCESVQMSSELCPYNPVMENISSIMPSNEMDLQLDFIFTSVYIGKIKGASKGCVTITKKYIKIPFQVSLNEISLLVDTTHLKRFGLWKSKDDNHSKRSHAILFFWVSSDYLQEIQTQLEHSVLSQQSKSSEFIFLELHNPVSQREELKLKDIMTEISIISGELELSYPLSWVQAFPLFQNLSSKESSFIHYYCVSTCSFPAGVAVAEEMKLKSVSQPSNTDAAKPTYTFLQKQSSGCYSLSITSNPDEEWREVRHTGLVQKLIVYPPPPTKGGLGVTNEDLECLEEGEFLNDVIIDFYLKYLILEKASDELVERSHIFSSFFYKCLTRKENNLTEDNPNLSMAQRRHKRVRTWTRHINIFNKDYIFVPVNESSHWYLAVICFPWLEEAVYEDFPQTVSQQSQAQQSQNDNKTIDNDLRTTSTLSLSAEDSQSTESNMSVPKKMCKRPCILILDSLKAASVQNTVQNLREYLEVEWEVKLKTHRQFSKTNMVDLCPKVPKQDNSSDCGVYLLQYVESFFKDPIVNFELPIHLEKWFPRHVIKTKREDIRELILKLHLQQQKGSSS
The format is functional.

Another test concerns the target T4, Caspase-3 (Homo sapiens, UniProt P42574).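 Also: Dose-response selectivity test against caspase-3 for candidate inhibitors of sentrin-specific proteases (SENPs).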
T4 sequence (P42574 whole entry): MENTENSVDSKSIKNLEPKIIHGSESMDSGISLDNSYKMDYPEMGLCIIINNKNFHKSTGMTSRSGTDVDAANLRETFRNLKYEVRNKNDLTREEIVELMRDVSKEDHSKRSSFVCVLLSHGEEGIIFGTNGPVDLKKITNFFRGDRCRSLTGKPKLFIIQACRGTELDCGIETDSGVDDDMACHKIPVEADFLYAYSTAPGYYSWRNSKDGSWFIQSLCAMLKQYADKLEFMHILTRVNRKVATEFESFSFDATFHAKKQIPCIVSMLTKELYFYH
The format is functional.

Test [4] deals with T5, Sentrin-specific protease 6 (Homo sapiens, UniProt Q9GZR1).
T5 sequence (Q9GZR1 whole entry): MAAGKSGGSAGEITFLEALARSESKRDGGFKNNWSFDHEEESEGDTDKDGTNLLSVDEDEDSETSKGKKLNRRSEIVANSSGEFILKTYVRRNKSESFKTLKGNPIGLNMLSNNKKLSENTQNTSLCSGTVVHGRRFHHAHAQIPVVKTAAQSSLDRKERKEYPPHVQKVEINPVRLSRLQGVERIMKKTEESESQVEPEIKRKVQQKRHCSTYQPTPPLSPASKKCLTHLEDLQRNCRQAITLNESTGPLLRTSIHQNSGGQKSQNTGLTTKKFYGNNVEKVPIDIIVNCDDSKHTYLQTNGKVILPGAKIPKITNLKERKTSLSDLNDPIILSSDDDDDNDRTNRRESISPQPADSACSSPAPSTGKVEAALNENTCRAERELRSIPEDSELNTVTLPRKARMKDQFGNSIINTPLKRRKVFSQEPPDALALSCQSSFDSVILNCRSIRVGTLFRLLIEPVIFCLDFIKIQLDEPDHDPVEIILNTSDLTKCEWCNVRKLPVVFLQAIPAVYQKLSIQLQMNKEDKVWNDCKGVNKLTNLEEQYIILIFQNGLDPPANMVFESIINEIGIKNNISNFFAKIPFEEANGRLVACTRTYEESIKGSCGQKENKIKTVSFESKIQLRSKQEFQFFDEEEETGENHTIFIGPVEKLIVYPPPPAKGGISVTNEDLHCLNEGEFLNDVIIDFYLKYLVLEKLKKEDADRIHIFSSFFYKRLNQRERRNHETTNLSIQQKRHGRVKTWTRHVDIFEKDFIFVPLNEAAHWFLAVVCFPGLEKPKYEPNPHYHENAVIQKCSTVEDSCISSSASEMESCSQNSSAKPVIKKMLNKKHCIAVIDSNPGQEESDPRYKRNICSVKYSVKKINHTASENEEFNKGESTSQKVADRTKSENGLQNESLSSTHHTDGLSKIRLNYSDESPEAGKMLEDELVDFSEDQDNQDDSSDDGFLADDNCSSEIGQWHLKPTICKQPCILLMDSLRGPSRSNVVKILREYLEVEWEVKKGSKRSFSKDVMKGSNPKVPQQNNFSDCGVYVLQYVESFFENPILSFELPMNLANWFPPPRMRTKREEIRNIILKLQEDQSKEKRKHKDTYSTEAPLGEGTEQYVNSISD
The format is functional.

The target in test [5] is T6, Sentrin-specific protease 8 (Homo sapiens, UniProt Q96LD8).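 Also: luminescence read-out of SENP8 inhibition, dose-response confirmation following an ultra-high-throughput screen.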
T6 sequence (Q96LD8 whole entry): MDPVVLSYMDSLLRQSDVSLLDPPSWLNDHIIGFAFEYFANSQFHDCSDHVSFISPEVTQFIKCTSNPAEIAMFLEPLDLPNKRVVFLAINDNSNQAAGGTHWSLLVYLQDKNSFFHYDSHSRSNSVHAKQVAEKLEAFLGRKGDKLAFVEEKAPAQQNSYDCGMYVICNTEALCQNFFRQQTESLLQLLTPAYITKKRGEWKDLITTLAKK
Type of test: functional.

Test [6] is described as follows: inhibitors of clade B AD8 Env fusion, dose response, cell-based, cherry-pick (AID 652062).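 Also: luciferase signal from cell-cell fusion driven by HIV-1 clade B AD8 Env; potency is for inhibitors of fusion seen as a drop in luminescence.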 Type of test: functional.
Test [7] is described as follows: off-target signal loss in HeLa-CEM21 co-culture – HeLa F-luc CTL cells, cherry-picked, counter-screen for HIV-1 Env fusion inhibitor project, dose response (AID 652040).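 Also: potency for signal decrease marking cytotoxic or nonspecific inhibition.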 Type of test: functional, cell-based.
A short description of test [8]: inhibitors of HIV Env-driven cell fusion, dose response, cherry-pick (AID 652057). The format is functional, cell-based.
Test [9] in a line: ZM109 Env clade C HIV-1 fusion inhibitors, dose response, HeLa effector, CEM target cells, luciferase, cherry-pick (AID 652058). Type of test: functional, cell-based.
Test [10] in a line: P. falciparum ATP4 D1247Y mutant growth inhibitors, dose response, NITD609-resistant line, SYBR Green, dry powder (AID 1159571).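 Also: parasites synchronized at ring stage by sorbitol before testing.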 The format is functional, cell-based.
The nature of test [11]: HepG2 cell cytotoxicity, dose response, cytotoxicity control, plate reader, dry powder samples (AID 1159569).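 Also: inhibitor potency with signal falling toward the positive control level.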 Type of test: functional, cell-based.
Test [12] in a line: P. falciparum Dd2 growth inhibitors, dose response, SYBR Green, dry powder samples (AID 1159566).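 Also: potency for growth inhibition with lower SYBR green DNA signal.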 The format is functional, cell-based.
Test [13] can be described thus: P. falciparum 3D7-ScDHODH growth inhibitors, dose response, SYBR Green, dry powder samples (AID 1159570).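 Also: parasite growth measured after 72 hours of compound exposure.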 The format is functional, cell-based.
The target of test [14] is Heat shock protein HSP 90-alpha (Homo sapiens, UniProt P07900). The format is functional, organism-based.

Take `Cc1ccc(CN2CCN(CC(C)C)C(CCO)C2)s1` (stereo unspecified): the EC50 in test [1] was 98.2 µM (active); in test [2] it was > 67.6 µM (inactive).
On to `CCOC(=O)c1c(C)oc2c1cc(O)c1ccccc12`, for which the EC50 in [2] is > 67.5 µM (inactive).
In the case of `Cc1cc(C)c(O)c(-c2cc(C(=O)Nc3cccnc3)[nH]n2)c1`, the IC50 was 4.68 µM (active) in test [3], 31.4 µM (active) on Caspase-3, > 100 µM (inactive) in test [4] and > 100 µM (inactive) in test [5].
With `c1cncc(-c2noc(-c3ccc4ccccc4c3)n2)c1`, the EC50 in test [2] was > 67.5 µM (inactive).
With `COc1ccc(-n2nc3cc(N)c(Br)cc3n2)cc1`, the IC50 in [3] was 5.03 µM (active); at Caspase-3, 13.3 µM (active); in [4], 8.1 µM (active); in test [5] it was 11 µM (active).
Take `Cc1ccc(OCc2nc(-c3cccs3)no2)c([N+](=O)[O-])c1`: the IC50 in test [3] was 5.51 µM (active); at Caspase-3 it was 21.4 µM (active); in test [4], 11.9 µM (active); in test [5] it was 10.2 µM (active).
On to `Cc1ccc(-c2noc(CSc3ccccc3)n2)cc1`, for which the IC50 in test [3] is 6.8 µM (active); on Caspase-3, 25.5 µM (active); in [4], 36.4 µM (active); in test [5], 13.7 µM (active).
`CC(=O)c1sc(Nc2nc3ccc(F)cc3s2)nc1C`: the IC50 in [3] is 5.6 µM (active); on Caspase-3, 18.8 µM (active); in test [4], 11.2 µM (active); in test [5], 16 µM (active).
With `CNC(=O)c1ccsc1NC(=O)c1ccc2c(c1)CCCC2`, the IC50 in [3] was 5.37 µM (active); at Caspase-3 it was 28.4 µM (active); in [4] it was 8.31 µM (active); in test [5], 17.9 µM (active).
On to `COc1ccc(/C=C2/CCc3ccccc3C2=O)cc1OC`, for which the IC50 in test [3] was 8.88 µM (active); on Caspase-3, 32.2 µM (active); in test [4], 18 µM (active); in test [5], 17 µM (active).
`CCCCSc1ncnc2c1ncn2C1CCCCO1` (stereo unspecified): in test [2], the EC50 is > 67.4 µM (inactive).
Same read-out and setting: then `O=C(NNCc1ccccc1)c1ccccn1`, with > 67.6 µM (inactive).
For the molecule `C[C@H]1CNC(=O)c2c(C(=O)N3CCN(c4ccccc4)CC3)ncn21`, the AC50 in [6] was 7.04 µM (active); in test [7] it was 9.62 µM (active); in [8], 4.6 µM (active); in test [9], 3.25 µM (active).
As to `CCCC#Cc1ccc2c(c1)O[C@@H](CN(C)C(=O)C1CCCCC1)[C@H](C)CN([C@H](C)CO)S2(=O)=O`, the results for the AC50 in test [8] and in test [9] were 21.7 µM (active) and 13.3 µM (active), respectively.
Take `C#CCNC(=O)C[C@H]1C[C@@]2(C(=O)OC)C(=C[C@H](C(C)C)O[C@@H]2C2CC2)N(CCCCCCCC)C1=O`: the EC50 in test [2] was > 67.5 µM (inactive).
Consider `COc1cccc(NC(=O)N(C)C[C@@H]2Oc3cc(C#Cc4ccccc4)ccc3S(=O)(=O)N([C@@H](C)CO)C[C@@H]2C)c1`, for which the concentration at half-maximal activity (AC50) in [10] was 1.35 µM (active); in test [11], > 100 µM (inactive); in test [12], 1.33 µM (active); in [13] it was 1.14 µM (active).
On to `Cc1cc(C)c(S(=O)(=O)N2CCC(C(=O)NCc3ccc(Cl)cc3Cl)CC2)c(C)c1`, for which the AC50 in test [14] is < 0.195 µM (active).
